Drawing on US8680269B2, “Pesticidal compositions” (Dow AgroSciences, LLC., priority 2009, dated 2014), this text covers mortality for 36 compounds.

What all share (type): in vivo
The subject of assay [1] is corn earworm (CEW; Helicoverpa zea). As to the kind of experiment: Insecticidal test for corn earworm, 128-well diet tray assay. The following applies: 144 h, 50 μg/cm2 on artificial diet, second instar larvae, six days at 25° C. How it is done: (§1) Bioassays on corn earworm (CEW; Helicoverpa zea: Lepidoptera) were conducted using a 128-well diet tray assay. Three to five second instar CEW larvae were placed in each well (3 mL) of the diet tray that had been previously filled with 1 mL of artificial diet to which 50 μg/cm^2 of the test compound (dissolved in 50 μL of 90:10 acetone-water mixture) had been applied (to each of eight wells) and then allowed to dry. Trays were covered with a clear self-adhesive cover, and held at 25° C., 14:10 light-dark for six days. Percent mortality was recorded for the larvae in each well; activity in the eight wells was then averaged.

The test system of assay [2] is beet armyworm (BAW; Spodoptera exigua). The experiment in a line: Insecticidal test for beet armyworm, 128-well diet tray assay. As to conditions: 144 h, 50 μg/cm2 on artificial diet, second instar larvae, six days at 25° C. How it is done: as §1, with “beet armyworm (BAW; Spodoptera exigua:” for “corn earworm (CEW; Helicoverpa zea:”, “BAW” for “CEW”
Assay [3] deals with green peach aphid (Myzus persicae). The experiment in a line: Insecticidal test for green peach aphid in foliar spray assay. As to conditions: 72 h, 200 ppm foliar spray on cabbage seedlings, graded after three days, Abbott corrected % control, read-out: Mortality GPA 200 ppm. Here is the method: Cabbage seedlings grown in 3-inch pots, with 2-3 small (3-5 cm) true leaves, were used as test substrate. The seedlings were infested with 20-50 green peach aphids (wingless adult and nymph) one day prior to chemical application. Four pots with individual seedlings were used for each treatment. Compounds (2 mg) were dissolved in 2 mL of acetone/methanol (1:1) solvent, forming stock solutions of 1000 ppm. The stock solutions were diluted 5× with 0.025% Tween 20 in H2O to obtain the test solution at 200 ppm. A hand-held Devilbiss sprayer was used for spraying a solution to both sides of cabbage leaves until runoff. Reference plants (solvent check) were sprayed with the diluent only. Treated plants were held in a holding room for three days at approximately 25° C. and 40% relative humidity (RH) prior to grading. Evaluation was conducted by counting the number of live aphids per plant under a microscope. Insecticidal activity data, measured by using Abbott's correction formula, are presented in Table 2: Corrected % Control=100*(X−Y)/X • where X=No. of live aphids on solvent check plants • Y=No. of live aphids on treated plants

Broadly, the mortality is the share of the test organisms that died. Turning to `Cc1ccccc1NC(=S)N/N=C/c1ccc(-c2ncn(-c3ccc(OC(F)(F)F)cc3)n2)cc1` [Compound 71], the mortality at 50 µg/cm2 in assay [1] and in assay [2] was 50 to 100% each time. In addition, in assay [3], the mortality at 200 ppm was under 80%.

Consider `CN(C)c1cccc(NC(=S)N/N=C/c2ccc(-c3ncn(-c4ccc(OC(F)(F)F)cc4)n3)cc2)c1` [Compound 2, N-(3-(dimethylamino)phenyl)-2-(4-(1-(4-(trifluoromethoxy)phenyl)-1H-1,2,4-triazol-3-yl)benzylidene)hydrazinecarbothioamide], for which the mortality at 50 µg/cm2 in assay [1] and in assay [2] was 50 to 100% each time. The mortality at 200 ppm in assay [3] is under 80%.

`Fc1cccc(F)c1NC(=S)N/N=C/c1ccc(-c2ncn(-c3ccc(OC(F)(F)F)cc3)n2)cc1` [Compound 47]: the mortality at 50 µg/cm2 in assay [1] and in assay [2] was 50 to 100% throughout. In assay [3], the mortality at 200 ppm is under 80%.

`FC(F)(F)Oc1ccc(-n2cnc(-c3ccc(/C=N/NC(=S)NCCOc4ccccn4)cc3)n2)cc1` [Compound 17]: the mortality at 50 µg/cm2 in assay [1] and in assay [2] was 50 to 100% in each case. Also, the mortality at 200 ppm in assay [3] is under 80%.

As to `FC(F)(F)Oc1ccc(-n2cnc(-c3ccc(/C=N/NC(=S)NCc4ccc(Cl)cc4)cc3)n2)cc1` [Compound 34], the mortality at 50 µg/cm2 in assay [1] and in assay [2] was 50 to 100% throughout. Moreover, in assay [3], the mortality at 200 ppm is under 80%.

In the case of `O=C(N/N=C/c1ccc(-c2ncn(-c3ccc(OC(F)(F)F)cc3)n2)cc1)Nc1ccc(F)cc1` [Compound 35], the mortality at 50 µg/cm2 in assay [1] and in assay [2] was under 50% throughout. In addition, the mortality at 200 ppm in assay [3] was under 80%.

`FC(F)(F)Oc1ccc(-n2cnc(-c3ccc(/C=N/NC(=S)Nc4ccccc4OC(F)(F)F)cc3)n2)cc1` [Compound 66]: the mortality at 50 µg/cm2 in assay [1] and in assay [2] was 50 to 100% in each case. For the same compound, the mortality at 200 ppm in assay [3] is under 80%.

On to `O=C(c1ccccc1NC(=S)N/N=C/c1ccc(-c2ncn(-c3ccc(OC(F)(F)F)cc3)n2)cc1)C(F)(F)F` [Compound 61], for which the mortality at 50 µg/cm2 in assay [1] and in assay [2] was 50 to 100% each time. In addition, in assay [3], the mortality at 200 ppm is under 80%.

Turning to `Cc1cccc(C)c1NC(=S)N/N=C/c1ccc(-c2ncn(-c3ccc(OC(F)(F)F)cc3)n2)cc1` [Compound 78], the mortality at 50 µg/cm2 in assay [1] and in assay [2] was 50 to 100% throughout. Besides, in assay [3], the mortality at 200 ppm was under 80%.

On to `CC(=O)Nc1cccc(NC(=S)N/N=C/c2ccc(-c3ncn(-c4ccc(OC(F)(F)F)cc4)n3)cc2)n1` [Compound 44], for which the mortality at 50 µg/cm2 in assay [1] and in assay [2] was under 50% in each case. In assay [3], the mortality at 200 ppm is under 80%.

On to `CN(C)CCCNC(=S)N/N=C/c1ccc(-c2ncn(-c3ccc(OC(F)(F)F)cc3)n2)cc1` [Compound 19], for which the mortality at 50 µg/cm2 in assay [1] and in assay [2] was under 50% each time. Also, the mortality at 200 ppm in assay [3] was under 80%.

Regarding `COc1cccc(C(C)NC(=S)N/N=C/c2ccc(-c3ncn(-c4ccc(OC(F)(F)F)cc4)n3)cc2)c1` (centres unmarked) [Compound 153], the mortality at 50 µg/cm2 in assay [1] and in assay [2] was 50 to 100% throughout.

As to `COc1ccc(C(C)NC(=S)N/N=C/c2ccc(-c3ncn(-c4ccc(OC(F)(F)F)cc4)n3)cc2)cc1OC` (centres unmarked) [Compound 151], the mortality at 50 µg/cm2 in assay [1] and in assay [2] was 50 to 100% throughout.

As to `COc1cc(OC)c(NC(=S)N/N=C/c2ccc(-c3ncn(-c4ccc(OC(F)(F)F)cc4)n3)cc2)c(OC)c1` [Compound 88], the mortality at 50 µg/cm2 in assay [1] and in assay [2] was 50 to 100% each time.

Regarding `Cc1ccc(C(C)NC(=S)N/N=C/c2ccc(-c3ncn(-c4ccc(OC(F)(F)F)cc4)n3)cc2)cc1` (centres unmarked) [Compound 144], the mortality at 50 µg/cm2 in assay [1] and in assay [2] was 50 to 100% in each case.

Consider `CC(C)(C)c1ccccc1NC(=S)N/N=C/c1ccc(-c2ncn(-c3ccc(OC(F)(F)F)cc3)n2)cc1` [Compound 83], for which the mortality at 50 µg/cm2 in assay [1] and in assay [2] was under 50% in each case.

For `COC(=O)C1CC(c2ccc(/C=N/NC(=S)Nc3c(Cl)cccc3Cl)cc2)=NN1c1ccc(OC(F)(F)F)cc1` (centres unmarked) [Compound 131], the mortality at 50 µg/cm2 in assay [1] and in assay [2] was 50 to 100% in each case.

For the compound `Cc1ccc(NC(=S)N/N=C/c2ccc(-c3ncn(-c4ccc(OC(F)(F)F)cc4)n3)cc2)cc1` [Compound 92], the mortality at 50 µg/cm2 in assay [1] and in assay [2] was 50 to 100% in each case.

For `FC(F)(F)Oc1ccc(-n2ccc(-c3ccc(/C=N/NC(=S)Nc4c(Cl)cccc4Cl)cc3)n2)cc1` [Compound 137], the mortality at 50 µg/cm2 in assay [1] and in assay [2] was 50 to 100% throughout.

With `Cc1ccccc1C(C)NC(=S)N/N=C/c1ccc(-c2ncn(-c3ccc(OC(F)(F)F)cc3)n2)cc1` (centres unmarked) [Compound 147], the mortality at 50 µg/cm2 in assay [1] and in assay [2] was 50 to 100% each time.

Consider `COc1ccc(NC(=S)N/N=C/c2ccc(-c3ncn(-c4ccc(OC(F)(F)F)cc4)n3)cc2)c(C(C)C)c1` [Compound 121], for which the mortality at 50 µg/cm2 in assay [1] and in assay [2] was 50 to 100% throughout.

Consider `FC(F)(F)Oc1ccc(-n2cnc(-c3ccc(/C=N/NC(=S)NCc4ccsc4)cc3)n2)cc1` [Compound 154], for which the mortality at 50 µg/cm2 in assay [1] and in assay [2] was 50 to 100% throughout.

Regarding `Cc1cc(Cl)cc(C)c1NC(=S)N/N=C/c1ccc(-c2ncn(-c3ccc(OC(F)(F)F)cc3)n2)cc1` [Compound 114], the mortality at 50 µg/cm2 in assay [1] and in assay [2] was 50 to 100% in each case.

On to `Cc1cccc(C)c1NC(=S)N/N=C/c1ccc(-c2ccn(-c3ccc(OC(F)(F)F)cc3)n2)cc1` [Compound 136], for which the mortality at 50 µg/cm2 in assay [1] and in assay [2] was 50 to 100% each time.

For `Cc1cc(C)c(NC(=S)N/N=C/c2ccc(-c3ncn(-c4ccc(OC(F)(F)C(F)(F)F)cc4)n3)cc2)c(C)c1` [Compound 123], the mortality at 50 µg/cm2 in assay [1] and in assay [2] was 50 to 100% each time.

With `Cc1ncccc1NC(=S)N/N=C/c1ccc(-c2ncn(-c3ccc(OC(F)(F)F)cc3)n2)cc1` [Compound 99], the mortality at 50 µg/cm2 in assay [1] and in assay [2] was 50 to 100% each time.

Regarding `COc1ccc(NC(=S)N/N=C/c2ccc(-c3ncn(-c4ccc(OC(F)(F)C(F)(F)F)cc4)n3)cc2)c(C)c1` [Compound 122], the mortality at 50 µg/cm2 in assay [1] and in assay [2] was 50 to 100% in each case.

Regarding `CC(C)c1ccccc1NC(=S)N/N=C/c1ccc(-c2ncn(-c3ccc(OC(F)(F)F)cc3)n2)cc1` [Compound 80], the mortality at 50 µg/cm2 in assay [1] and in assay [2] was 50 to 100% throughout.

On to `CCc1cccc(CC)c1NC(=S)N/N=C(\C)c1ccc(-c2ncn(-c3ccc(OC(F)(F)F)cc3)n2)cc1` [Compound 110], for which the mortality at 50 µg/cm2 in assay [1] and in assay [2] was 50 to 100% in each case.

Consider `COC(=O)c1ccccc1NC(=S)N/N=C/c1ccc(-c2ncn(-c3ccc(OC(F)(F)F)cc3)n2)cc1` [Compound 84], for which the mortality at 50 µg/cm2 in assay [1] and in assay [2] was under 50% throughout.

In the case of `COc1cc(C)cc(C)c1NC(=S)N/N=C/c1ccc(-c2ncn(-c3ccc(OC(F)(F)F)cc3)n2)cc1` [Compound 103], the mortality at 50 µg/cm2 in assay [1] and in assay [2] was 50 to 100% in each case.

Turning to `FC(F)(F)Oc1ccc(-n2cnc(-c3ccc(/C=N/NC(=S)NC4CCc5ccccc54)cc3)n2)cc1` (centres unmarked) [Compound 145], the mortality at 50 µg/cm2 in assay [1] and in assay [2] was 50 to 100% each time.

Turning to `Cc1ccc(NC(=S)N/N=C/c2ccc(-c3ncn(-c4ccc(OC(F)(F)F)cc4)n3)cc2)c(C(C)C)c1` [Compound 96], the mortality at 50 µg/cm2 in assay [1] and in assay [2] was 50 to 100% in each case.

As for `COc1cccc(NC(=S)N/N=C/c2ccc(-c3ncn(-c4ccc(OC(F)(F)F)cc4)n3)cc2)c1C` [Compound 90], the mortality at 50 µg/cm2 in assay [1] and in assay [2] was 50 to 100% in each case.

As for `FC(F)(F)Oc1ccc(-n2cnc(-c3ccc(/C=N/NC(=S)Nc4ncc(Cl)cc4Cl)cc3)n2)cc1` [Compound 113], the mortality at 50 µg/cm2 in assay [1] and in assay [2] was under 50% throughout.

Consider `C=C(C)c1ccccc1NC(=S)N/N=C/c1ccc(-c2ncn(-c3ccc(OC(F)(F)F)cc3)n2)cc1` [Compound 91], for which the mortality at 50 µg/cm2 in assay [1] and in assay [2] was 50 to 100% in each case.
